Values after ≈ are worked out from the molar mass of the structure shown.
Key:
Assay type in all cases: functional
[1] = test system: Mycobacterium tuberculosis; assay: Antituberculosis activity against Mycobacterium tuberculosis H37Rv assessed as growth inhibition after 12 to 28 days by L-J MIC method; conditions: for MIC: Mycobacterium tuberculosis, H37Rv
[2] = test system: Candida albicans; assay: Antimicrobial activity against Candida albicans MTCC 183 assessed as growth inhibition after 48 hr by agar streak dilution method; conditions: MTCC 183, 48 h
[3] = test system: Aspergillus clavatus; assay: Antimicrobial activity against Aspergillus clavatus MTCC 1323 assessed as growth inhibition after 48 hr by agar streak dilution method; conditions: MTCC 1323, 48 h
[4] = test system: Aspergillus fumigatus; assay: Antimicrobial activity against Aspergillus fumigatus MTCC 343 assessed as growth inhibition after 48 hr by agar streak dilution method; conditions: MTCC 343, 48 h
[5] = test system: Aspergillus niger; assay: Antimicrobial activity against Aspergillus niger MTCC 282 assessed as growth inhibition after 48 hr by agar streak dilution method; conditions: MTCC 282, 48 h
[6] = test system: Shigella flexneri; assay: Antimicrobial activity against Shigella flexneri MTCC1457 assessed as growth inhibition after 24 hr by agar streak dilution method; conditions: MTCC1457, 24 h
[7] = test system: Proteus vulgaris; assay: Antimicrobial activity against Proteus vulgaris MTCC 1771 assessed as growth inhibition after 24 hr by agar streak dilution method; conditions: MTCC 1771, 24 h
[8] = test system: Salmonella typhi; assay: Antimicrobial activity against Salmonella enterica subsp. enterica serovar Typhi MTCC 733 assessed as growth inhibition after 24 hr by agar streak dilution method; conditions: MTCC 733, 24 h
[9] = test system: Klebsiella pneumoniae; assay: Antimicrobial activity against Klebsiella pneumoniae MTCC 109 assessed as growth inhibition after 24 hr by agar streak dilution method; conditions: MTCC 109, 24 h
[10] = test system: Pseudomonas aeruginosa; assay: Antimicrobial activity against Pseudomonas aeruginosa MTCC 741 assessed as growth inhibition after 24 hr by agar streak dilution method; conditions: MTCC 741, 24 h
[11] = test system: Escherichia coli; assay: Antimicrobial activity against Escherichia coli MTCC 739 assessed as growth inhibition after 24 hr by agar streak dilution method; conditions: MTCC 739, 24 h
[12] = test system: Bacillus cereus; assay: Antimicrobial activity against Bacillus cereus MTCC 430 assessed as growth inhibition after 24 hr by agar streak dilution method; conditions: MTCC 430, 24 h
[13] = test system: Staphylococcus aureus; assay: Antimicrobial activity against Staphylococcus aureus MTCC 96 assessed as growth inhibition after 24 hr by agar streak dilution method; conditions: MTCC 96, 24 h
[14] = test system: Candida albicans; assay: Antimicrobial activity against Candida albicans MTCC 183 assessed as diameter of growth inhibition zone after 48 hr
[15] = test system: Aspergillus clavatus; assay: Antimicrobial activity against Aspergillus clavatus MTCC 1323 assessed as diameter of growth inhibition zone after 48 hr
[16] = test system: Aspergillus fumigatus; assay: Antimicrobial activity against Aspergillus fumigatus MTCC 343 assessed as diameter of growth inhibition zone after 48 hr
[17] = test system: Aspergillus niger; assay: Antimicrobial activity against Aspergillus niger MTCC 282 assessed as diameter of growth inhibition zone after 48 hr
[18] = test system: Shigella flexneri; assay: Antimicrobial activity against Shigella flexneri MTCC1457 assessed as diameter of growth inhibition zone after 24 hr
[19] = test system: Proteus vulgaris; assay: Antimicrobial activity against Proteus vulgaris MTCC 1771 assessed as diameter of growth inhibition zone after 24 hr
[20] = test system: Salmonella typhi; assay: Antimicrobial activity against Salmonella enterica subsp. enterica serovar Typhi MTCC 733 assessed as diameter of growth inhibition zone after 24 hr
[21] = test system: Klebsiella pneumoniae; assay: Antimicrobial activity against Klebsiella pneumoniae MTCC 109 assessed as diameter of growth inhibition zone after 24 hr
[22] = test system: Pseudomonas aeruginosa; assay: Antimicrobial activity against Pseudomonas aeruginosa MTCC 741 assessed as diameter of growth inhibition zone after 24 hr
[23] = test system: Escherichia coli; assay: Antimicrobial activity against Escherichia coli MTCC 739 assessed as diameter of growth inhibition zone after 24 hr
[24] = test system: Bacillus cereus; assay: Antimicrobial activity against Bacillus cereus MTCC 430 assessed as diameter of growth inhibition zone after 24 hr
[25] = test system: Staphylococcus aureus; assay: Antimicrobial activity against Staphylococcus aureus MTCC 96 assessed as diameter of growth inhibition zone after 24 hr

Structure (SMILES) | growth inhibition (GI) [1] [%] | MIC [1] [mg/L] | MIC [2] [mg/L] | MIC [3] [mg/L] | MIC [4] [mg/L] | MIC [5] [mg/L] | MIC [6] [mg/L] | MIC [7] [mg/L] | MIC [8] [mg/L] | MIC [9] [mg/L] | MIC [10] [mg/L] | MIC [11] [mg/L] | MIC [12] [mg/L] | MIC [13] [mg/L] | diameter of the inhibition zone (DIZ) [14] [mm] | diameter of the inhibition zone (DIZ) [15] [mm] | diameter of the inhibition zone (DIZ) [16] [mm] | diameter of the inhibition zone (DIZ) [17] [mm] | diameter of the inhibition zone (DIZ) [18] [mm] | diameter of the inhibition zone (DIZ) [19] [mm] | further results
CC(=O)N1N=C(c2ccc(Nc3cc(=O)oc4ccccc34)cc2)CC1c1ccc(Cl)cc1Cl (stereo unspecified) | 96 | 500 (≈ 1020 µM) | 100 (≈ 203 µM) | 100 (≈ 203 µM) | 50 (≈ 102 µM) | 100 (≈ 203 µM) | 50 (≈ 102 µM) | 12.5 (≈ 25.4 µM) | 50 (≈ 102 µM) | 25 (≈ 50.8 µM) | 25 (≈ 50.8 µM) | 50 (≈ 102 µM) | 12.5 (≈ 25.4 µM) | 12.5 (≈ 25.4 µM) | 15 | 16 | 19 | 17 | 17 | 22 | diameter of the inhibition zone (DIZ) [20]: 17 mm; diameter of the inhibition zone (DIZ) [21]: 19 mm; diameter of the inhibition zone (DIZ) [22]: 20 mm; diameter of the inhibition zone (DIZ) [23]: 18 mm; diameter of the inhibition zone (DIZ) [24]: 21 mm; diameter of the inhibition zone (DIZ) [25]: 22 mm
N#Cc1c(-c2ccccc2Br)cc(-c2ccc(Nc3cc(=O)oc4ccccc34)cc2)nc1N | 98 | 100 (≈ 196 µM) | 25 (≈ 49.1 µM) | 25 (≈ 49.1 µM) | 12.5 (≈ 24.5 µM) | 25 (≈ 49.1 µM) | 12.5 (≈ 24.5 µM) | 25 (≈ 49.1 µM) | 25 (≈ 49.1 µM) | 12.5 (≈ 24.5 µM) | 50 (≈ 98.2 µM) | 50 (≈ 98.2 µM) | 25 (≈ 49.1 µM) | 25 (≈ 49.1 µM) | 24 | 19 | 22 | 22 | 22 | 20 | diameter of the inhibition zone (DIZ) [20]: 22 mm; diameter of the inhibition zone (DIZ) [21]: 23 mm; diameter of the inhibition zone (DIZ) [22]: 19 mm; diameter of the inhibition zone (DIZ) [23]: 18 mm; diameter of the inhibition zone (DIZ) [24]: 20 mm; diameter of the inhibition zone (DIZ) [25]: 23 mm
N#Cc1c(-c2ccc(F)cc2)cc(-c2ccc(Nc3cc(=O)oc4ccccc34)cc2)nc1N | 97 | 50 (≈ 111 µM) | 12.5 (≈ 27.9 µM) | 6.25 (≈ 13.9 µM) | 3.12 (≈ 6.96 µM) | 12.5 (≈ 27.9 µM) | 12.5 (≈ 27.9 µM) | 3.12 (≈ 6.96 µM) | 6.25 (≈ 13.9 µM) | 3.12 (≈ 6.96 µM) | 3.12 (≈ 6.96 µM) | 3.12 (≈ 6.96 µM) | 3.12 (≈ 6.96 µM) | 6.25 (≈ 13.9 µM) | 22 | 28 | 28 | 23 | 24 | 29 | diameter of the inhibition zone (DIZ) [20]: 26 mm; diameter of the inhibition zone (DIZ) [21]: 28 mm; diameter of the inhibition zone (DIZ) [22]: 29 mm; diameter of the inhibition zone (DIZ) [23]: 27 mm; diameter of the inhibition zone (DIZ) [24]: 28 mm; diameter of the inhibition zone (DIZ) [25]: 25 mm
Nc1nc(-c2ccc(Nc3cc(=O)oc4ccccc34)cc2)cc(-c2ccc([N+](=O)[O-])cc2)n1 | 96 | 500 (≈ 1110 µM) | 50 (≈ 111 µM) | 25 (≈ 55.4 µM) | 100 (≈ 222 µM) | 50 (≈ 111 µM) | 100 (≈ 222 µM) | 100 (≈ 222 µM) | 25 (≈ 55.4 µM) | 50 (≈ 111 µM) | 100 (≈ 222 µM) | 100 (≈ 222 µM) | 100 (≈ 222 µM) | 100 (≈ 222 µM) | 19 | 20 | 16 | 17 | 16 | 14 | diameter of the inhibition zone (DIZ) [20]: 21 mm; diameter of the inhibition zone (DIZ) [21]: 18 mm; diameter of the inhibition zone (DIZ) [22]: 16 mm; diameter of the inhibition zone (DIZ) [23]: 17 mm; diameter of the inhibition zone (DIZ) [24]: 16 mm; diameter of the inhibition zone (DIZ) [25]: 15 mm
CC(=O)N1N=C(c2ccc(Nc3cc(=O)oc4ccccc34)cc2)CC1c1ccccc1O (stereo unspecified) | 98 | 250 (≈ 569 µM) | 100 (≈ 228 µM) | 50 (≈ 114 µM) | 25 (≈ 56.9 µM) | 50 (≈ 114 µM) | 50 (≈ 114 µM) | 100 (≈ 228 µM) | 100 (≈ 228 µM) | 50 (≈ 114 µM) | 100 (≈ 228 µM) | 100 (≈ 228 µM) | 100 (≈ 228 µM) | 100 (≈ 228 µM) | 16 | 20 | 18 | 19 | 18 | 17 | diameter of the inhibition zone (DIZ) [20]: 16 mm; diameter of the inhibition zone (DIZ) [21]: 20 mm; diameter of the inhibition zone (DIZ) [22]: 16 mm; diameter of the inhibition zone (DIZ) [23]: 16 mm; diameter of the inhibition zone (DIZ) [24]: 16 mm; diameter of the inhibition zone (DIZ) [25]: 17 mm
Nc1nc(-c2ccc(Nc3cc(=O)oc4ccccc34)cc2)cc(-c2ccccc2Br)n1 | 98 | 100 (≈ 206 µM) | 25 (≈ 51.5 µM) | 50 (≈ 103 µM) | 50 (≈ 103 µM) | 50 (≈ 103 µM) | 50 (≈ 103 µM) | 100 (≈ 206 µM) | 50 (≈ 103 µM) | 50 (≈ 103 µM) | 100 (≈ 206 µM) | 100 (≈ 206 µM) | 100 (≈ 206 µM) | 100 (≈ 206 µM) | 23 | 17 | 19 | 20 | 19 | 17 | diameter of the inhibition zone (DIZ) [20]: 20 mm; diameter of the inhibition zone (DIZ) [21]: 18 mm; diameter of the inhibition zone (DIZ) [22]: 15 mm; diameter of the inhibition zone (DIZ) [23]: 16 mm; diameter of the inhibition zone (DIZ) [24]: 16 mm; diameter of the inhibition zone (DIZ) [25]: 17 mm

Reference: ChEMBL document CHEMBL3045446, “In vitro antimicrobial and antimycobacterial activity of some chalcones and their derivatives” (2013)
